Data as given in US8151795B2, “Method of demand valve oxygen therapy for rapid abort of cluster headache” (Linde AG, priority 2008, dated 2012).
Several values for one entry are separate records, joined by “and”; a condition that tells them apart may be missing. Equal entries are not always repeated. Where two headings read alike, the source gives them in different places.

What was measured:
[1] = tested on: cluster headache patients; conditions: nasal spray at doses of 5 and 10 mg; cited from earlier work
[2] = tested on: pulmonary ventilation rate; conditions: increase of about 0.25% alveolar carbon dioxide; cited from earlier work
[3] = tested on: cerebral blood flow; conditions: 5% carbon dioxide; young men; cited from earlier work
[4] = tested on: patients with episodic and chronic cluster headache; conditions: episodic and chronic disease; cited from earlier work
[5] = tested on: cluster headache sufferers
From the text: It is critical that the cluster headache sufferer fully inhale and exhale as completely as possible during the first three phases of the method of the present invention, in order to insure more complete ventilation of the lungs during hyperventilation and the expelling of carbon dioxide, a vasodilative agent, as rapidly as possible. The four phases of the invented demand valve method are herein described in more detail.
Taking three to four very deep breaths of oxygen from the demand valve, exhaling and inhaling as completely as possible with each breath, starts the process of clearing the residual Nitrogen from the lungs and also starts the shift into hyperoxia, which can be defined as having more oxygen in the blood than normal.
In Phase 3, slow hyperventilation, which has a recommended respiration rate of 30 breaths per minute, the purpose is to maintain the benefits of hyperventilation, respiratory alkalosis, hypocapnia, and hyperoxia, but at a more comfortable respiration rate. […] The cluster headache sufferer should maintain this respiration rate until the cluster headache pain has clearly subsided.

[6] = tested on: cluster headache patients; conditions: cited from earlier work; for headache response: Rozen 2004; for subjects in whom oxygen is effective: standard of care continuous flow
[7] = tested on: cluster headache patients; conditions: cited from earlier work
[8] = tested on: cerebral blood flow; conditions: cited from earlier work
[9] = tested on: Extracerebral Flow Index; conditions: cluster headache patients during headache interval, during 100% oxygen inhalation; cited from earlier work
[10] = tested on: normal human subjects; conditions: cited from earlier work
[11] = tested on: cluster headache patients; conditions: cited from earlier work; remark: listed apart in the source
[12] = after 10 minutes of oxygen inhalation

## CN(C)CCc1c[nH]c2ccc(C[C@H]3COC(=O)N3)cc12 [Zolmitriptan]
[1]
  acute treatment of cluster headache: effective and tolerable

## O=C=O [carbon dioxide]
[2]
  increase in pulmonary ventilation rate: 100%
[3]
  increase in CBF: 59%

## O=O [hyperbaric oxygen]
[4]
  prophylactic effect: no significant prophylactic effect

## O=O [oxygen]
[5]; Kip pain level high (7-8) and abort times less than 15 min
  re-attacks (attack 15 to 45 minutes after successful abort), incidence per aborts: 1 out of 4
[5]; demand valve method, chronic sufferers over 50, attacks of Kip 8 pain level or below
  success rate of aborting cluster headache: 95% and > 95%
[5]; demand valve method, same pain level
  reduction of time for complete abort vs non-rebreathing mask with 15 l/min continuous flow oxygen: ~50%
[5]; demand valve method, the one Kip 9 cluster headache recorded
  time to abort: 25 min
[5]; many months of continuous use, other than dry mouth
  adverse effects or symptoms: no adverse effects or symptoms encountered
[5]; total of 20 minutes of continuous oxygen inhalation
  re-attacks after extending oxygen use after abort: largely or totally eliminated
[6]; 7 to 12 l/min continuous flow, non-rebreathing mask
  time to being effective: ≤ 5 min
[6]; Ekbom 2002, Matharu 2003
  adverse effects of oxygen for cluster headache: no established adverse effects
[6]; Kudrow 1981, cessation of pain within 15 minutes for at least 7 of 10 attacks
  patients obtaining significant relief from cluster pain: 75%
[6]; Kudrow 1981, chronic patients over 49 years of age
  least benefit: 57%
[6]; Kudrow 1981, episodic patients under 50 years of age
  greatest benefit: 92.9%
[6]; 7-10 l/min flow rate
  headache response: no change in headache intensity
[6]; higher flow rate (15 l/min)
  headache response: complete or near-complete headache alleviation
[6]; chronic patients, standard of care oxygen therapy
  patients having success: 68.4%
[6]; episodic patients, standard of care oxygen therapy
  patients responding favorably: 78%
[6]; non-rebreathing mask
  subjects in whom oxygen is effective: ~70%
[6]; non-rebreathing mask, listed as 100% oxygen
  subjects in whom oxygen is effective: 70%
[6]; standard of care method (Matharu 2003)
  patients noting oxygen simply delays the attack rather than aborting it: up to 25%
[7]; [12]
  average decrease of superficial temporal artery pulse amplitude: 30%
  patients with decreased pulse amplitude of superficial temporal artery, symptomatic side: 15 of the 16
[7]; after 15 minutes, 16 patients studied
  headache subsiding almost completely: 12 patients
[7]; after breathing 100% oxygen for 10 minutes
  patients reporting at least some relief: 15 of 16
[8]; Floyd 2003, transition from air to 100% O2 at 1.0 ATA, MRI
  decrease in CBF: 33%
[8]; Kawamura 1991, after 100% oxygen for five minutes, five cluster headache patients
  CBF values for temporal cortex and basal ganglia: significantly decreased below normal values
[8]; Kety, healthy young male volunteers
  decrease of cerebral blood flow: approximately 13%
[8]; Sakai 1979, normal volunteers of both sexes
  reduction of Fg (CBF in gray brain matter): 9.4+/−5.4%
[9]
  EFI values: 7+/−2%
[10]; Kafer 1971, within 3 hours of exposure
  toxic effects: no toxic effects
[10]; Sackner 1975, atmospheric pressure
  duration for which exposure is safe: less than 6 hours
[10]; Sackner 1975
  earliest occurrence of substernal stress after start of oxygen breathing: 4 h

## CNS(=O)(=O)Cc1ccc2[nH]cc(CCN(C)C)c2c1 [sumatriptan]
[11]; 6 mg injected subcutaneously, double blind placebo controlled trials
  patients in whom effective (pain free in 20 minutes): about 75%
[11]; sumatriptan injection (Rozen 2002)
  lower effectiveness in chronic than in episodic cluster: 8%
